Results on two molecules are retold here after publication PMC7760315 (Biomolecules, 2020).

In one assay the target is GlyRα3β/GlyT2 (Homo sapiens, UniProt O75311+P48167). The following applies: read-out: Fast-Flow Glycine EC50.
Assay [1] concerns GlyRα1. To be noted: cited from earlier work.
Another assay relates to GlyRα1-mCherry. To be noted: read-out: Glycine EC50; tagged receptor alone.
The subject of assay [2] is GlyRα1/GlyT2. Description: Two-electrode voltage clamp, oocytes co-expressing GlyRα1/GlyT2. The assay is classed as cell-based, human. An excerpt: (§1) Human GlyT1b and GlyT2a WT cDNA were subcloned into the plasmid oocyte transcription vector (pOTV) and human GlyRα1, GlyRα3 and GlyRβ into pGEMHE. GlyR cDNA pGEMHE vectors were provided by Mary Collins at the University of Sydney (Sydney, Australia). Single point mutations were introduced into GlyRα1 using the Q5 site-directed mutagenesis kit (New England Biolabs (Genesearch), Arundel, Australia) with oligonucleotide primers (Merck, Sydney, Australia) containing the desired mutations. The amplified cDNA/pOTV or cDNA/pGEMHE product was then transformed in E. coli cells, and subsequently purified using the PureLink Quick Plasmid Miniprep Kit (Invitrogen by Life Technologies, Löhne, Germany), and sequenced by the Australian Genome Research Facility (Sydney, Australia). The purified plasmid DNA was linearised via the restriction enzyme, SpeI (New England Biolabs (Genesearch), Arundel, Australia) for GlyT1b and GlyT2a (henceforth referred to as GlyT1 and GlyT2 respectively) and NheI (New England Biolabs (Genesearch)) for GlyRα1, GlyRα3 and GlyRβ. Complementary RNAs were synthesised using the mMESAGE mMACHINE T7 kit (Ambion, Austin, TX, USA).
(§2) All work involving the use of animals was performed in accordance with the Australian Code of Practice for the Care and Use of Animals for Scientific Purposes and approved by the University of Sydney Animal Ethics Committee (Approval numbers 2016/970 and 2020/1704). […] The oocytes were then stored in frog Ringer’s solution (96 mM NaCl, 2 mM KCl, 1 mM MgCl2, 1.8 mM CaCl2, 5 mM HEPES, pH 7.5) which was supplemented with 2.5 mM sodium pyruvate, 0.5 mM theophylline, 50 μg/mL gentamicin and […] tetracycline. The oocytes were stored at 18 °C for 3–5 days, until transporter and receptor expression were adequate for measurement using the two-electrode voltage clamp technique.
(§3) GlyT1, GlyT2, GlyRα1, GlyRα3, GlyRα1β and GlyRα3β are electrogenic, allowing activation to be measured via the two-electrode voltage clamp technique. Oocytes were voltage clamped at −60 mV, and whole-cell currents generated by the substrate were recorded with a Geneclamp 500 amplifier (Axon Instruments, Foster City, CA, USA), digitised by a Powerlab 2/20 chart recorder (ADInstruments, Sydney, Australia). LabChart version 8 software (ADInstruments, Sydney, Australia) was used to visualise and process current traces. Recordings were performed in frog Ringer’s solution, except for low Na^+ experiments where Na^+ was replaced with choline. Oocytes were placed in an oval-shaped bath with a volume of 0.3 mL, with laminar flow around the oocyte at a rate of 12 mL min^−1 under gravity feed.
(§4) Varying concentrations of substrate or agonist were applied to cells in ND96. […]
On the technique in general: Two-electrode voltage clamp is typically applied to oocytes expressing channels or transporters.

The target of the next assay is GlyT1 (Homo sapiens, UniProt P48067). To be noted: read-out: glycine EC50 (transport current); GlyT1 expressed alone.
Source text: as §1, §2, §3
(§5) Varying concentrations of substrate or agonist were applied to cells in ND96.

Assay [3] deals with GlyT2 (Homo sapiens, UniProt Q9Y345). The following applies: read-out: glycine EC50 (transport current); GlyT2 expressed alone.
Source text: as §1, §2, §3, §5

Another assay has as its target GlyRα3/GlyT1 (Homo sapiens, UniProt O75311). The following applies: read-out: Fast-Flow Glycine EC50.
Source text: as §1, §2, §3, §5

The target of another assay is GlyRα3 (Homo sapiens, UniProt O75311). The following applies: read-out: Fast-Flow Glycine EC50.
Source text: as §1, §2, §3, §5

In another assay the target is GlyRα3/GlyT2 (Homo sapiens, UniProt O75311). To be noted: read-out: Fast-Flow Glycine EC50.
Source text: as §1, §2, §3, §5

Assay [4] deals with T1, GlyRα1 (Homo sapiens, UniProt P23415).
T1 construct: expressed in transfected cells; host or cells: Xenopus laevis oocytes (cRNA injection)
T1 sequence (P23415 29-457): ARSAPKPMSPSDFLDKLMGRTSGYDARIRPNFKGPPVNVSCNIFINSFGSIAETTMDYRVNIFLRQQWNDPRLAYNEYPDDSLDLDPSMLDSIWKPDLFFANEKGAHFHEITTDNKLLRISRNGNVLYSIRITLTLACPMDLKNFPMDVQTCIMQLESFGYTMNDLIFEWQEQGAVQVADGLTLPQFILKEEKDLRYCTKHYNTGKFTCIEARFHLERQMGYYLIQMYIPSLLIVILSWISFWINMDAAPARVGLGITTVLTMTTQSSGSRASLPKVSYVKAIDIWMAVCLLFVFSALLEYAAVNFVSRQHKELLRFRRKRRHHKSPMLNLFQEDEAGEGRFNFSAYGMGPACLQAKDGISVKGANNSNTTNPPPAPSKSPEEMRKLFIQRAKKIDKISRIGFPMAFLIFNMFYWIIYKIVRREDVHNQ
Description: Two-electrode voltage clamp, Xenopus laevis oocytes expressing GlyRα1 alone. In kind it is cell-based.
Source text: as §1, §2, §3, §5
Flow of the solution was stopped until the current plateaued, by manually closing a three-way valve on one end of the bath such that the solution in the bath was static and is referred to henceforth as ‘stop-flow’.

A further assay has as its target GlyRα3β/GlyT1 (Homo sapiens, UniProt O75311+P48167). To be noted: read-out: Fast-Flow Glycine EC50.
A further assay has as its system GlyT2-GFP. To be noted: read-out: Glycine EC50; tagged transporter alone.
The target in assay [5] is T2, GlyRα1/GlyT2 (Homo sapiens, UniProt Q9Y345).
T2 construct: expressed in transfected cells; host or cells: Xenopus laevis oocytes (cRNA co-injection)
T2 sequence (Q9Y345 1-797): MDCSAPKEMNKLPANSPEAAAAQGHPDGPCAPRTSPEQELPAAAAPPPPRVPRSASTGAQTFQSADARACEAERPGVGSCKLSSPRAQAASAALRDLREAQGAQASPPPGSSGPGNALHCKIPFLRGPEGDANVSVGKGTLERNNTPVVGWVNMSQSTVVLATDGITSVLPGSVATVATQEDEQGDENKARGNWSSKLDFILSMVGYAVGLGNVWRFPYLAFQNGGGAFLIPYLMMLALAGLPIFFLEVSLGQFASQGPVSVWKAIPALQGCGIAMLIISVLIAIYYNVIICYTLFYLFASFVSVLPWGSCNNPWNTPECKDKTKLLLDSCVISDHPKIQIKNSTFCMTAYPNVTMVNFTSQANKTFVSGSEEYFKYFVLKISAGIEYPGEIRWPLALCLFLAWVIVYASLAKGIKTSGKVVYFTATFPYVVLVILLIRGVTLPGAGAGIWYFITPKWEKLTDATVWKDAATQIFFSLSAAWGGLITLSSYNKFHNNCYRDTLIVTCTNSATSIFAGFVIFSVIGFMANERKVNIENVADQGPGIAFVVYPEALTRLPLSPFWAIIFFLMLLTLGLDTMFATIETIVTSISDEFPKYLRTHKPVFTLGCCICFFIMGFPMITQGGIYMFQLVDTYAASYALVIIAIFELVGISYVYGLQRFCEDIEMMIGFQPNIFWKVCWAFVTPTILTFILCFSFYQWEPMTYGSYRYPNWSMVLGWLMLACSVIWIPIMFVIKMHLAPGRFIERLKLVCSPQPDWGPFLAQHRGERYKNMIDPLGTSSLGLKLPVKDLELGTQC
Description: Two-electrode voltage clamp, oocytes co-expressing GlyRα1/GlyT2. The following applies: 1 µM inhibitor; fast-flow. The assay is classed as cell-based.
Source text: as §1, §2, §3, §4

Assay [6] has as its system GlyT2. The following applies: cited from earlier work.

Values joined by “and” are separate entries in the source; they are usually repeats but may differ in a detail not shown here. Equal entries are not always repeated. Where two headings read alike, the source gives them in different places.

Sequence of GlyRα3/GlyT2 (O75311 34-464): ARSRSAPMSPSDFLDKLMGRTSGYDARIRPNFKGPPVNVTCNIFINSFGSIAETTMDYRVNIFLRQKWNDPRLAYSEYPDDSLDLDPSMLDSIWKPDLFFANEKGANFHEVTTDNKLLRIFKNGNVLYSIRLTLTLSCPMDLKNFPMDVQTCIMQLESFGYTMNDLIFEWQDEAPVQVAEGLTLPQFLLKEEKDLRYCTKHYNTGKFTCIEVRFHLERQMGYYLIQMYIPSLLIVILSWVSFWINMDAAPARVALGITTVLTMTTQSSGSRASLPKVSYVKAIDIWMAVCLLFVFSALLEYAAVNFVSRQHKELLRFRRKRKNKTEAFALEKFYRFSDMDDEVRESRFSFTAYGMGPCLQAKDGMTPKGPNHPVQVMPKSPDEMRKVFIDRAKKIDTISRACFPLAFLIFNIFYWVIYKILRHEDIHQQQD
Sequence of GlyRα3/GlyT1 (O75311 34-464): as above
Sequence of GlyRα3 (O75311 34-464): as above
Sequence of GlyRα3β/GlyT2 (O75311 34-464): as above
Sequence of GlyRα3β/GlyT2 (P48167 23-497): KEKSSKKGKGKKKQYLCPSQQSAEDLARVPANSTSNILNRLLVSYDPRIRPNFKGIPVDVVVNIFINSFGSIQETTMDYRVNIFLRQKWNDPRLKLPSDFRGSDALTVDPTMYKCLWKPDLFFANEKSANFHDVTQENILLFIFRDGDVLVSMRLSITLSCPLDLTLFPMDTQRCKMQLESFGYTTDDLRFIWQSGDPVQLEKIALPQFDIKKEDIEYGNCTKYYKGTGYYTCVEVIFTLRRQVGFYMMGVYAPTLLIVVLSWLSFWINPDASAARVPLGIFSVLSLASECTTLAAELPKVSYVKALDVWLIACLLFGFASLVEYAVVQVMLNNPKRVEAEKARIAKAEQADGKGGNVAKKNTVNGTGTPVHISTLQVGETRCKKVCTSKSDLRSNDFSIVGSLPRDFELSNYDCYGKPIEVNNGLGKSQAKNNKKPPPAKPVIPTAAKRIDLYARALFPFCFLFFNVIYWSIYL
Sequence of GlyRα3β/GlyT1 (O75311 34-464): as the sequence (O75311 34-464) above
Sequence of GlyRα3β/GlyT1 (P48167 23-497): as the sequence (P48167 23-497) above
Sequence of GlyT1 (P48067 1-652 isoform P48067-3): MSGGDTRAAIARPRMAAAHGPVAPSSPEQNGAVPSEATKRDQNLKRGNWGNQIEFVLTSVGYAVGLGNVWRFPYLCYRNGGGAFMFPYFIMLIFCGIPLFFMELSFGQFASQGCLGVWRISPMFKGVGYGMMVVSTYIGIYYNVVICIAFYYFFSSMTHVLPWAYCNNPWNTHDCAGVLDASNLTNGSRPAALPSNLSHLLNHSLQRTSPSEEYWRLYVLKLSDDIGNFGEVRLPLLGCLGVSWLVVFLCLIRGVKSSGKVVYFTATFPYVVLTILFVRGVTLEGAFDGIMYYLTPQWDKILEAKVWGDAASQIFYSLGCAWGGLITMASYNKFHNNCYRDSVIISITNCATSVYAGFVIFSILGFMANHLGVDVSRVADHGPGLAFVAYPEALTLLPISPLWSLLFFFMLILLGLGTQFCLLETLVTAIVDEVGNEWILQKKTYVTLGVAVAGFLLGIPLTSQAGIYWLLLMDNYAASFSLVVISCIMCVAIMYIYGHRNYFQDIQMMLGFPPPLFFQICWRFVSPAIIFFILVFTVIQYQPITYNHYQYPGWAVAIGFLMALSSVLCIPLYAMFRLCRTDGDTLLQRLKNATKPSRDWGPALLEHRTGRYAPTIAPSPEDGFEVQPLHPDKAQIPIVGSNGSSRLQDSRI
Description for GlyRα1-mCherry: (§6) The oocytes were then stored in frog Ringer’s solution (96 mM NaCl, 2 mM KCl, 1 mM MgCl2, 1.8 mM CaCl2, 5 mM HEPES, pH 7.5) which was supplemented with 2.5 mM sodium pyruvate, 0.5 mM theophylline, 50 μg/mL gentamicin and 100 μM mL^−1 tetracycline. The oocytes were stored at 18 °C for 3–5 days, until transporter and receptor expression were adequate for measurement using the two-electrode voltage clamp technique.
Source text for GlyRα3β/GlyT1: (§7) Human GlyT1b and GlyT2a WT cDNA were subcloned into the plasmid oocyte transcription vector (pOTV) and human GlyRα1, GlyRα3 and GlyRβ into pGEMHE. […] Single point mutations were introduced into GlyRα1 using the Q5 site-directed mutagenesis kit (New England Biolabs (Genesearch), Arundel, Australia) with oligonucleotide primers (Merck, Sydney, Australia) containing the desired mutations. […] The purified plasmid DNA was linearised via the restriction enzyme, SpeI (New England Biolabs (Genesearch), Arundel, Australia) for GlyT1b and GlyT2a (henceforth referred to as GlyT1 and GlyT2 respectively) and NheI (New England Biolabs (Genesearch)) for GlyRα1, GlyRα3 and GlyRβ. Complementary RNAs were synthesised using the mMESAGE mMACHINE T7 kit (Ambion, Austin, TX, USA). […]
(§8) GlyT1, GlyT2, GlyRα1, GlyRα3, GlyRα1β and GlyRα3β are electrogenic, allowing activation to be measured via the two-electrode voltage clamp technique. Oocytes were voltage clamped at −60 mV, and whole-cell currents generated by the substrate were recorded with a Geneclamp 500 amplifier (Axon Instruments, Foster City, CA, USA), digitised by a Powerlab 2/20 chart recorder (ADInstruments, Sydney, Australia). […]
Source text for GlyRα3β/GlyT2: as §7, §8
Description for GlyT2-GFP: as §6

Consider `NCC(=O)O` [glycine], for which the concentration for a half-maximal effect (EC50) (usually the concentration that produces a half-maximal response) is 224 µM at GlyRα3β/GlyT2; 24 µM in the assay on GlyRα1 [1] (read-out: glycine EC50, ref 51); 42 µM with GlyRα1 [1] (read-out: glycine EC50, ref 52); 20 to 280 µM in the assay with GlyRα1 [1] (read-out: glycine EC50 values in oocytes, variable with maximal current); 15.7 µM in the assay on GlyRα1-mCherry; 30.9 µM and 41.6 µM and 34.1 µM and 27.9 µM and 27.3 µM with GlyRα1/GlyT2 [2] (read-out: Fast-Flow Glycine EC50). Besides, the EC50 in the assay on GlyRα1/GlyT2 [2] (read-out: Glycine EC50) is 23 µM; in the assay on GlyRα1/GlyT2 [2] (read-out: Stop-Flow Glycine EC50) it was 83.1 µM; at GlyT1 it was about 35 µM; at GlyT2 [3] it was 21.8 µM and ~30 µM; at GlyRα3/GlyT1 it was 154 µM; at GlyRα3, 64.8 µM. The EC50 turned out to be 160 µM on GlyRα3/GlyT2, 220 µM on GlyRα3β/GlyT1 and 28.1 µM in the assay on GlyT2-GFP. Besides, the “Peak Current” value at GlyRα1 [4] is on record as 740.6 ± 105.9 nA.
Consider `COc1cc(C(=O)NCC2(N(C)C)CCCC2)cc(OC)c1OCc1ccccc1` [ORG-25543], for which the “nH of glycine dose-response in the presence of GlyT inhibitor” value on GlyRα1/GlyT2 [5] stood at 2.6 ± 0.4 ns. Moreover, the IC50 (commonly the concentration needed to halve the response being measured) in the assay with GlyT2 [6] is 0.016 µM.
